Measured values: paper PMC10099813, “Stafiba: A STAT5‐Selective Small‐Molecule Inhibitor” (Chembiochem, 2022)

Columns and labels:
STAT5b = molecular target: T1, STAT5b (Homo sapiens, UniProt P51692); assay: Competitive fluorescence polarization (FP) binding assay, STAT5b SH2 domain; details: for Ki / IC50: FP assay, 2 % DMSO (10 % DMSO for 10); for Ki: Ki calculated from IC50 (n=3) via published equation; for IC50: n=3; for selectivity for STAT5b over STAT1, STAT3, and STAT6: FP assays
T1 sequence (P51692 1-787): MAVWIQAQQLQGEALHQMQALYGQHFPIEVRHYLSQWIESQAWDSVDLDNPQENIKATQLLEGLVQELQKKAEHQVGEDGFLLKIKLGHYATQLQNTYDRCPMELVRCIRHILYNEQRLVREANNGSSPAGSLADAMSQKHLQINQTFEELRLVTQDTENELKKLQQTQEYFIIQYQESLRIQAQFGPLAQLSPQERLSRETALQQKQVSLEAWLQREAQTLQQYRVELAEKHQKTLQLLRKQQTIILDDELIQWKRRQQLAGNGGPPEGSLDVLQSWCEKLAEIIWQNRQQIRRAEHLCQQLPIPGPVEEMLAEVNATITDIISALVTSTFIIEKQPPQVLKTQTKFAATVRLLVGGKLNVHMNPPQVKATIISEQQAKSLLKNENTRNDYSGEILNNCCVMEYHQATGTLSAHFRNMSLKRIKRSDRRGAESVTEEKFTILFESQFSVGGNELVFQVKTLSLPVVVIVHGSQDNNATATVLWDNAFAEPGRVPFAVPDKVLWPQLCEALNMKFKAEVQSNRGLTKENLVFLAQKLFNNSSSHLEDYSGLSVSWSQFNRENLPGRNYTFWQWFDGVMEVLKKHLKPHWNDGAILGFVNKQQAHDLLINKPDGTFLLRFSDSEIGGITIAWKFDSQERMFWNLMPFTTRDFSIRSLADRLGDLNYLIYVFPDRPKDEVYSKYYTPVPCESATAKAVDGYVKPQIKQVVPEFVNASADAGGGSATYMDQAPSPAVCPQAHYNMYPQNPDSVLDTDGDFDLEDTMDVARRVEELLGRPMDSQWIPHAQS
Procedure: (§1) Fluorescence polarization assays: Competitive binding assays based on fluorescence polarization were carried out essentially as previously described.[[4a]] Unless stated otherwise, final concentrations of the buffer components were: 10 mM Tris (pH 8.0), 50 mM NaCl, 1 mM EDTA, 1 mM DTT, 0.1 % (v/v) Nonidet P‐40 substitute, and 2 % DMSO. Proteins were used at concentrations which reflect the Kd values of the interactions between the fluoropeptide and the protein preparations. Protein concentrations used for activity analysis of compound 5 were 91 nM for STAT1, 107 nM for STAT3, 28 nM for STAT4, 122 nM for STAT5a, 56 nM for STAT5b and 101 nM for STAT6. Protein concentrations used for activity analysis of AC‐4‐130 were 103 nM for STAT5a and 62 nM for STAT5b. […] Final concentration of all fluorescent‐labelled peptides was 10 nM. The following peptides were used in assays: 5‐carboxyfluorescein‐GpYDKPHVL for STAT1; 5‐carboxyfluorescein‐GpYLPQTV‐NH2 for STAT3; 5‐carboxyfluorescein‐GpYLPQNID for STAT4; 5‐carboxyfluorescein‐GpYLVLDKW for STAT5a/5b, and 5‐carboxyfluorescein‐GpYVPWQDLI for STAT6. Protein and test compounds were incubated for 1 h prior to addition of the fluorescein‐labeled peptide. Fluorescence polarization was measured after another 60 min using an Infinite F500 plate reader (Tecan). IC50 values were converted to Ki‐values using the published equation.[13]

STAT6 = molecular target: T2, STAT6 (Homo sapiens, UniProt P42226); assay: Competitive fluorescence polarization (FP) binding assay, STAT6
T2 sequence (P42226 1-847): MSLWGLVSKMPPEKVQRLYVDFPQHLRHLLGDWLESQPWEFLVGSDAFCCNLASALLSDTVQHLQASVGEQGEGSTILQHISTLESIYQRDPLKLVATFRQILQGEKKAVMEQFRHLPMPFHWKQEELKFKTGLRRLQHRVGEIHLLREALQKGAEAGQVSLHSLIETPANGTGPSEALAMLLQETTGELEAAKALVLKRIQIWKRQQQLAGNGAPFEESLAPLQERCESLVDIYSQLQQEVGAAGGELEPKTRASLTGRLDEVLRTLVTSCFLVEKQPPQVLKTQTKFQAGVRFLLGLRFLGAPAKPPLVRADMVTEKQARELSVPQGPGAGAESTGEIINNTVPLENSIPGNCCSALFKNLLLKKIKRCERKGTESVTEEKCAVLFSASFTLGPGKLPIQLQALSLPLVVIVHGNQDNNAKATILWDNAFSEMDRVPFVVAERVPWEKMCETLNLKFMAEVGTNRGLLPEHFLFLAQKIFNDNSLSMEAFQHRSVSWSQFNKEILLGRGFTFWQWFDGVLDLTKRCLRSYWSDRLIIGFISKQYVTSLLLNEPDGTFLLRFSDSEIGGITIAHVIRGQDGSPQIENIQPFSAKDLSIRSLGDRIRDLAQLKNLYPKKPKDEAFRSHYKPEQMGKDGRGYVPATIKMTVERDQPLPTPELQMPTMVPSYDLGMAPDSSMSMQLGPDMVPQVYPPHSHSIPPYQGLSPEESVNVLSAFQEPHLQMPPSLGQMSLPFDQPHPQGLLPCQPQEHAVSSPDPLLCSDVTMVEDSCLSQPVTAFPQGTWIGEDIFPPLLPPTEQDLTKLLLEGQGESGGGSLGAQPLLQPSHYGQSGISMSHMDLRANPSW
Procedure: as §1

[1] = Solubility as observed during synthesis / stock preparation; format: physicochemical; details: DMSO stock solution
STAT3 = STAT3 (Homo sapiens, UniProt P40763); assay: Competitive fluorescence polarization (FP) binding assay, STAT3; details: 2 % DMSO for 5, 10 % DMSO for 10
Procedure: as §1

Chain of STAT3 (P40763 whole entry, species assumed): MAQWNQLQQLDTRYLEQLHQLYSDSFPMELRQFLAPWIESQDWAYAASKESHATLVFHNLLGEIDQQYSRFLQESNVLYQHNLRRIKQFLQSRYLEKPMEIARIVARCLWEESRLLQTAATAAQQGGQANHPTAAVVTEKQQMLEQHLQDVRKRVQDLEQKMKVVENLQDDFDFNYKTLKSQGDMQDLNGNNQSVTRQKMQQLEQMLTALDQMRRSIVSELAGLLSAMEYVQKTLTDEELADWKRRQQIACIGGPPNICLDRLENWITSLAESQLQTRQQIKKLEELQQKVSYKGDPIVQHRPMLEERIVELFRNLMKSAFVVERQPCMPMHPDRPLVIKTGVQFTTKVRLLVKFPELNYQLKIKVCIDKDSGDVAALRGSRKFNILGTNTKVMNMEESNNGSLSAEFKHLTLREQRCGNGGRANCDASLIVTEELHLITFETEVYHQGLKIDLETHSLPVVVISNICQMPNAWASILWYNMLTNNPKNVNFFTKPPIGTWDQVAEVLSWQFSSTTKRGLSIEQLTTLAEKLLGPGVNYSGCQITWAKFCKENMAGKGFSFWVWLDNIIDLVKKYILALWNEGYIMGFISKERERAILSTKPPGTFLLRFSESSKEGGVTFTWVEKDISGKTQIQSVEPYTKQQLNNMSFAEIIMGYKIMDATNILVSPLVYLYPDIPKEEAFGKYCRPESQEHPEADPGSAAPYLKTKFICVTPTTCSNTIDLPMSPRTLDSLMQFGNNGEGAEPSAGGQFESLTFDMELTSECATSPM

Row | Structure (SMILES) | Ki (STAT5b) [µM] | IC50 (STAT5b) [µM] | selectivity for STAT5b over STAT1, STAT3, and STAT6 (STAT5b) | activity compared with AC-4-130 in FP assay against the SH2 domain of STAT5b (STAT5b; Figure 5C) | IC50 (STAT6; 10 % DMSO) [µM] | Ki (STAT6; Ki calculated from IC50, 10 % DMSO) [µM] | solubility in the DMSO stock solution [1] | inhibition at 100 µM (STAT3) [%] | inhibition at 100 µM (STAT6; 100 µM, 2 % DMSO) [%]
1 | O=C(CNc1ccc(C(=O)Nc2ccc(Oc3ccccc3)cc2)cc1)NCc1cc(C(F)(F)P(=O)(O)O)c(F)c(C(F)(F)P(=O)(O)O)c1 [compound 10] | 1.8 ± 0.1 | 3.7 ± 0.2 | 10–20 fold | substantially more active than AC‐4‐130 | 61.3 ± 2.7 | 30.1 ± 1.3 | limited solubility | 49 ± 3 | –
2 | O=C(CNc1ccc(C(=O)Nc2ccc(Oc3ccccc3)cc2)cc1)NCc1cc(OP(=O)(O)O)cc(OP(=O)(O)O)c1 [compound 5] | 1.5 ± 0.1 | 3.1 ± 0.3 | more than tenfold | – | – | – | – | 33 ± 11 | 48 ± 1
